Measured values taken from PubChem BioAssay AID330 (DTP/NCI, 2004).
Values joined by “and” are separate entries in the source; they are usually repeats but may differ in a detail not shown here. Equal values may be shown once. Inconclusive results and toxic doses are left out.

Tested on: P388 leukemia ip, CD2F1 mice, survival T/C
Test: NCI In Vivo Anticancer Drug Screen. Data for tumor model P388 Leukemia (intraperitoneal) in CD2F1 (CDF1) mice
Conditions: endpoint: median survival time, higher = longer survival
How it was run: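 Mice carrying the transplanted tumor received test compound or vehicle. Survival was recorded in each group, and the value is the treated-group measurement divided by that of the vehicle-treated control group.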

[1] = dose: 6.25 mg/kg/injection, schedule: Q01DX009 (ip), vehicle: saline
[2] = dose: 50.0 mg/kg/injection, schedule: Q01DX009 (ip), vehicle: saline
[3] = dose: 25.0 mg/kg/injection, schedule: Q01DX009 (ip), vehicle: Klucel (hydroxypropylcellulose) (HPC)
[4] = dose: 50.0 mg/kg/injection, schedule: Q01DX009 (ip), vehicle: Klucel (hydroxypropylcellulose) (HPC)
[5] = dose: 12.5 mg/kg/injection, schedule: Q01DX009 (ip), vehicle: saline
[6] = dose: 25.0 mg/kg/injection, schedule: Q01DX009 (ip), vehicle: saline
[7] = dose: 100.0 mg/kg/injection, schedule: Q01DX009 (ip), vehicle: Klucel (hydroxypropylcellulose) (HPC)
[8] = dose: 200.0 mg/kg/injection, schedule: Q01DX009 (ip), vehicle: Klucel (hydroxypropylcellulose) (HPC)
[9] = dose: 60.0 mg/kg/injection, schedule: Q01DX005 (ip), vehicle: saline with Tween-80
[10] = dose: 100.0 mg/kg/injection, schedule: Q01DX009 (ip), vehicle: suspension in saline
[11] = dose: 200.0 mg/kg/injection, schedule: Q01DX009 (ip), vehicle: suspension in saline

COc1cccc2c1C(=O)c1c(O)c3c(c(O)c1C2=O)C[C@@](O)(/C(C)=N/N1CCCCC1)C[C@@H]3OC1CC(N)C(O)C(C)O1 (stereo partly drawn)
T/C (dose: 1.25 mg/kg/injection, schedule: Q01DX009 (ip), vehicle: saline): 156 % of control | T/C (dose: 2.5 mg/kg/injection, schedule: Q01DX009 (ip), vehicle: saline): 160 % of control | T/C (dose: 5.0 mg/kg/injection, schedule: Q01DX009 (ip), vehicle: saline): 101 % of control

CC[CH2][Sn]([CH2]CC)([O]C(C)=O)[c]1ccccc1
T/C (dose: 1.56 mg/kg/injection, schedule: Q01DX009 (ip), vehicle: saline): 90 % of control | T/C (dose: 3.12 mg/kg/injection, schedule: Q01DX009 (ip), vehicle: saline): 86 % of control | T/C [1]: 87 % of control | T/C [2]: 113 % of control

C[N+]1(Cc2csc(-c3ccc(Cl)cc3)n2)CCOCC1
T/C (dose: 12.5 mg/kg/injection, schedule: Q01DX009 (ip), vehicle: Klucel (hydroxypropylcellulose) (HPC)): 100 % of control and 106 % of control | T/C [3]: 113 % of control and 96 % of control | T/C [4]: 98 % of control and 108 % of control

COc1cc(OC)c(NC(=O)Oc2cc(C)c(I)cc2C)cc1Cl
T/C [1]: 118 % of control | T/C [5]: 96 % of control | T/C [6]: 93 % of control | T/C (dose: 100.0 mg/kg/injection, schedule: Q01DX009 (ip), vehicle: saline + alcohol): 98 % of control | T/C (dose: 200.0 mg/kg/injection, schedule: Q01DX009 (ip), vehicle: saline + alcohol): 95 % of control

O=C(CCS(=O)O)c1ccccc1
T/C (dose: 100.0 mg/kg/injection, schedule: Q04DX002 (ip), vehicle: saline): 101 % of control | T/C (dose: 200.0 mg/kg/injection, schedule: Q04DX002 (ip), vehicle: saline): 100 % of control | T/C (dose: 400.0 mg/kg/injection, schedule: Q04DX002 (ip), vehicle: saline): 94 % of control

CC(=O)OC1OC(CS[As](C)CCO)C(OC(C)=O)C(OC(C)=O)C1OC(C)=O (stereo not drawn)
T/C [4]: 110 % of control | T/C [7]: 112 % of control | T/C [8]: 112 % of control

O=C(Cn1ccc(=O)[nH]c1=O)N1CCOCC1
T/C (dose: 100.0 mg/kg/injection, schedule: Q04DX003 (ip), vehicle: water): 100 % of control | T/C (dose: 200.0 mg/kg/injection, schedule: Q04DX003 (ip), vehicle: water): 100 % of control | T/C (dose: 400.0 mg/kg/injection, schedule: Q04DX003 (ip), vehicle: water): 100 % of control

COc1ccc(C2=CC(OO)(C(C)(C)C)C(=O)C(C(C)(C)C)=C2)cc1.Oc1ccccc1C=NCCC[N-]CCCN=Cc1ccccc1O.[Co] (stereo not drawn)
T/C [4]: 101 % of control | T/C [7]: 101 % of control | T/C [8]: 100 % of control

Cc1cc(Nc2ccc(N(C)C)cc2)c2ccc(N(C)C)cc2n1
T/C (dose: 100.0 mg/kg/injection, schedule: Q04DX002 (ip), vehicle: acid diluted with saline): 95 % of control | T/C (dose: 200.0 mg/kg/injection, schedule: Q04DX002 (ip), vehicle: acid diluted with saline): 103 % of control | T/C (dose: 400.0 mg/kg/injection, schedule: Q04DX002 (ip), vehicle: acid diluted with saline): 96 % of control

COc1ccc2c(c1OC)C(=O)N1CCc3cc4c(cc3C1C2C(=O)O)OCO4 (stereo not drawn)
T/C (dose: 50.0 mg/kg/injection, schedule: Q04DX003 (ip), vehicle: distilled water + Tween-80): 100 % of control | T/C (dose: 100.0 mg/kg/injection, schedule: Q04DX003 (ip), vehicle: distilled water + Tween-80): 109 % of control | T/C (dose: 200.0 mg/kg/injection, schedule: Q04DX003 (ip), vehicle: distilled water + Tween-80): 100 % of control | T/C (dose: 400.0 mg/kg/injection, schedule: Q04DX003 (ip), vehicle: distilled water + Tween-80): 104 % of control

COc1ccc(/C=N\NC(=O)CNC(=O)Nc2cccc([N+](=O)[O-])c2)cc1O
T/C (dose: 15.0 mg/kg/injection, schedule: Q01DX005 (ip), vehicle: saline with Tween-80): 107 % of control | T/C (dose: 30.0 mg/kg/injection, schedule: Q01DX005 (ip), vehicle: saline with Tween-80): 93 % of control | T/C [9]: 89 % of control | T/C (dose: 240.0 mg/kg/injection, schedule: Q01DX005 (ip), vehicle: saline with Tween-80): 91 % of control and 93 % of control

C=CCNC(=S)N/N=C(\CCC)c1ccccn1
T/C (dose: 50.0 mg/kg/injection, schedule: Q01DX005 (ip), vehicle: saline with Tween-80): 114 % of control | T/C (dose: 100.0 mg/kg/injection, schedule: Q01DX005 (ip), vehicle: saline with Tween-80): 121 % of control

COc1cccc(CCNC(=O)CCN2C(=O)CCC2=O)c1
T/C (dose: 100.0 mg/kg/injection, schedule: Q01DX009 (ip), vehicle: saline with Tween-80): 105 % of control | T/C (dose: 200.0 mg/kg/injection, schedule: Q01DX009 (ip), vehicle: saline with Tween-80): 100 % of control | T/C (dose: 400.0 mg/kg/injection, schedule: Q01DX009 (ip), vehicle: saline with Tween-80): 110 % of control

S=P1(c2ccccc2)C=C(N2CCCC2)CC1 (stereo not drawn)
T/C [5]: 109 % of control | T/C [6]: 110 % of control | T/C [2]: 112 % of control | T/C (dose: 100.0 mg/kg/injection, schedule: Q01DX009 (ip), vehicle: saline): 104 % of control | T/C (dose: 200.0 mg/kg/injection, schedule: Q01DX009 (ip), vehicle: saline): 96 % of control

Clc1ncccc1-n1cccc1/C=N\N=C/c1cccn1-c1cccnc1Cl
T/C [9]: 97 % of control | T/C (dose: 120.0 mg/kg/injection, schedule: Q01DX005 (ip), vehicle: saline with Tween-80): 89 % of control

C=C(C)C12CC(C)C34OC5(OC1C3C1OC1(CO)C(O)C1(O)C(OC(=O)c3ccccc3)C(C)C(C(C)CCCCCCC5O)C14)O2 (stereo not drawn)
T/C (dose: 1.9 micrograms/kg/injection, schedule: Q01DX009 (ip), vehicle: distilled water + alcohol): 102 % of control | T/C (dose: 3.8 micrograms/kg/injection, schedule: Q01DX009 (ip), vehicle: distilled water + alcohol): 115 % of control | T/C (dose: 7.5 micrograms/kg/injection, schedule: Q01DX009 (ip), vehicle: distilled water + alcohol): 120 % of control | T/C (dose: 30.0 micrograms/kg/injection, schedule: Q01DX009 (ip), vehicle: distilled water + alcohol): 152 % of control

Cc1nc(C(=O)O)c(C(=O)O)[nH]1
T/C (dose: 100.0 mg/kg/injection, schedule: Q01DX009 (ip), vehicle: saline sonified): 90 % of control | T/C (dose: 200.0 mg/kg/injection, schedule: Q01DX009 (ip), vehicle: saline sonified): 100 % of control

NN=C(c1ccc(Br)cc1)c1ccc(Br)cc1
T/C (dose: 25.0 mg/kg/injection, schedule: Q04DX002 (ip), vehicle: saline with Tween-80): 100 % of control | T/C (dose: 50.0 mg/kg/injection, schedule: Q04DX002 (ip), vehicle: saline with Tween-80): 101 % of control | T/C (dose: 100.0 mg/kg/injection, schedule: Q04DX002 (ip), vehicle: saline with Tween-80): 100 % of control and 105 % of control

Cn1c2ccccc2c2cnn3c(-c4ccccc4)nnc3c21
T/C (dose: 100.0 mg/kg/injection, schedule: Q01DX001 (ip), vehicle: Klucel (hydroxypropylcellulose) (HPC)): 105 % of control | T/C (dose: 200.0 mg/kg/injection, schedule: Q01DX001 (ip), vehicle: Klucel (hydroxypropylcellulose) (HPC)): 100 % of control | T/C (dose: 400.0 mg/kg/injection, schedule: Q01DX001 (ip), vehicle: Klucel (hydroxypropylcellulose) (HPC)): 100 % of control

CC1(C)CC(OC(=O)CCC(=O)OC2CC(C)(C)N(O)C(C)(C)C2)CC(C)(C)N1O
T/C (dose: 50.0 mg/kg/injection, schedule: Q01DX009 (ip), vehicle: suspension in saline): 100 % of control | T/C [10]: 100 % of control | T/C [11]: 96 % of control

c1ccc(-c2nnc(-c3ccccn3)nn2)nc1
T/C [3]: 100 % of control | T/C [4]: 99 % of control | T/C [7]: 100 % of control | T/C [8]: 108 % of control | T/C (dose: 400.0 mg/kg/injection, schedule: Q01DX009 (ip), vehicle: Klucel (hydroxypropylcellulose) (HPC)): 96 % of control

CC(C)(C#CC(C)(C)OC(=O)Nc1ccccc1)OC(=O)Nc1ccccc1
T/C [10]: 95 % of control | T/C [11]: 97 % of control | T/C (dose: 400.0 mg/kg/injection, schedule: Q01DX009 (ip), vehicle: suspension in saline): 107 % of control
